{"source": "PubChem BioAssay AID1918945", "about": "(Molecular Pharmacology Branch, DTP, NCI, 2023)", "system": "883617-216-R-J1-PDC complex spheroid viability", "test": "Anticancer human tumor 883617-216-R-J1-PDC patient-derived bladder carcinoma cell line growth inhibition", "conditions": "for IC50: curve of first compound; for viability, T/C: stronger effect = lower value", "summary_of_the_method": "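Multicellular complex spheroids of tumor cells with human endothelial cells (HUVEC) and mesenchymal stem cells; the LSD1 inhibitor iadademstat was combined with standard-of-care or investigational agents. Top concentration at or near clinical Cmax, half-log dilutions; final DMSO ≤0.25%.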", "data": [{"compound": "Nc1ncn(C2CC(O)C(CO)O2)c(=O)n1", "note": "(stereo not given) + NC1CCC(NC2CC2c2ccccc2)CC1;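 further: exposure lasted seven days after three days of spheroid growth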;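 on viability, T/C: 100% = DMSO vehicle control luminescence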", "values": [{"measurement": "IC50", "setting": "second compound 0.1 µM", "value": "> 1", "unit": "µM"}, {"measurement": "IC50", "setting": "second compound 0.316 µM", "value": "> 1", "unit": "µM"}, {"measurement": "IC50", "setting": "second compound 1 µM", "value": "> 1", "unit": "µM"}, {"measurement": "IC50", "setting": "second compound 3.16 µM", "value": "> 1", "unit": "µM"}, {"measurement": "IC50", "setting": "second compound 10 µM", "value": "> 1", "unit": "µM"}, {"measurement": "viability, T/C", "setting": "second compound 0.1 µM, first compound 0.00316 µM", "value": 109, "unit": "%"}, {"measurement": "viability, T/C", "setting": "second compound 0.1 µM, first compound 0.01 µM", "value": 99.4, "unit": "%"}, {"measurement": "viability, T/C", "setting": "second compound 0.1 µM, first compound 0.0316 µM", "value": 94.7, "unit": "%"}, {"measurement": "viability, T/C", "setting": "second compound 0.1 µM, first compound 0.1 µM", "value": 78.1, "unit": "%"}, {"measurement": "viability, T/C", "setting": "second compound 0.1 µM, first compound 0.316 µM", "value": 72.6, "unit": "%"}, {"measurement": "viability, T/C", "setting": "second compound 0.1 µM, first compound 1 µM", "value": 62.4, "unit": "%"}, {"measurement": "viability, T/C", "setting": "second compound 0.316 µM, first compound 0.00316 µM", "value": 103, "unit": "%"}, {"measurement": "viability, T/C", "setting": "second compound 0.316 µM, first compound 0.01 µM", "value": 115, "unit": "%"}, {"measurement": "viability, T/C", "setting": "second compound 0.316 µM, first compound 0.0316 µM", "value": 102, "unit": "%"}, {"measurement": "viability, T/C", "setting": "second compound 0.316 µM, first compound 0.1 µM", "value": 89.8, "unit": "%"}, {"measurement": "viability, T/C", "setting": "second compound 0.316 µM, first compound 0.316 µM", "value": 79.4, "unit": "%"}, {"measurement": "viability, T/C", "setting": "second compound 0.316 µM, first compound 1 µM", "value": 67.1, "unit": "%"}, {"measurement": "viability, T/C", "setting": "second compound 1 µM, first compound 0.00316 µM", "value": 103, "unit": "%"}, {"measurement": "viability, T/C", "setting": "second compound 1 µM, first compound 0.01 µM", "value": 98.8, "unit": "%"}, {"measurement": "viability, T/C", "setting": "second compound 1 µM, first compound 0.0316 µM", "value": 96.7, "unit": "%"}, {"measurement": "viability, T/C", "setting": "second compound 1 µM, first compound 0.1 µM", "value": 89.6, "unit": "%"}, {"measurement": "viability, T/C", "setting": "second compound 1 µM, first compound 0.316 µM", "value": 77.7, "unit": "%"}, {"measurement": "viability, T/C", "setting": "second compound 1 µM, first compound 1 µM", "value": 69.6, "unit": "%"}, {"measurement": "viability, T/C", "setting": "second compound 3.16 µM, first compound 0.00316 µM", "value": 108, "unit": "%"}, {"measurement": "viability, T/C", "setting": "second compound 3.16 µM, first compound 0.01 µM", "value": 100, "unit": "%"}, {"measurement": "viability, T/C", "setting": "second compound 3.16 µM, first compound 0.0316 µM", "value": 92.4, "unit": "%"}, {"measurement": "viability, T/C", "setting": "second compound 3.16 µM, first compound 0.1 µM", "value": 84.8, "unit": "%"}, {"measurement": "viability, T/C", "setting": "second compound 3.16 µM, first compound 0.316 µM", "value": 78.6, "unit": "%"}, {"measurement": "viability, T/C", "setting": "second compound 3.16 µM, first compound 1 µM", "value": 66.9, "unit": "%"}, {"measurement": "viability, T/C", "setting": "second compound 10 µM, first compound 0.00316 µM", "value": 101, "unit": "%"}, {"measurement": "viability, T/C", "setting": "second compound 10 µM, first compound 0.01 µM", "value": 106, "unit": "%"}, {"measurement": "viability, T/C", "setting": "second compound 10 µM, first compound 0.0316 µM", "value": 108, "unit": "%"}, {"measurement": "viability, T/C", "setting": "second compound 10 µM, first compound 0.1 µM", "value": 92.3, "unit": "%"}, {"measurement": "viability, T/C", "setting": "second compound 10 µM, first compound 0.316 µM", "value": 93.8, "unit": "%"}, {"measurement": "viability, T/C", "setting": "second compound 10 µM, first compound 1 µM", "value": 77.6, "unit": "%"}]}, {"compound": "Nc1ncn(C2CC(O)C(CO)S2)c(=O)n1", "note": "(stereo not given) + NC1CC1c1ccc(-c2cccc(O)c2)cc1", "values": [{"measurement": "IC50", "setting": "second compound 0.1 µM", "value": 0.0276, "unit": "µM"}, {"measurement": "IC50", "setting": "second compound 0.316 µM", "value": 0.0407, "unit": "µM"}, {"measurement": "IC50", "setting": "second compound 1 µM", "value": 0.0339, "unit": "µM"}, {"measurement": "IC50", "setting": "second compound 3.16 µM", "value": 0.0245, "unit": "µM"}, {"measurement": "IC50", "setting": "second compound 10 µM", "value": 0.0185, "unit": "µM"}, {"measurement": "viability, T/C", "setting": "second compound 0.1 µM, first compound 0.000949 µM", "value": 115, "unit": "%"}, {"measurement": "viability, T/C", "setting": "second compound 0.1 µM, first compound 0.003 µM", "value": 97.1, "unit": "%"}, {"measurement": "viability, T/C", "setting": "second compound 0.1 µM, first compound 0.00949 µM", "value": 67.2, "unit": "%"}, {"measurement": "viability, T/C", "setting": "second compound 0.1 µM, first compound 0.03 µM", "value": 49.5, "unit": "%"}, {"measurement": "viability, T/C", "setting": "second compound 0.1 µM, first compound 0.0949 µM", "value": 37.6, "unit": "%"}, {"measurement": "viability, T/C", "setting": "second compound 0.1 µM, first compound 0.3 µM", "value": 29.5, "unit": "%"}, {"measurement": "viability, T/C", "setting": "second compound 0.316 µM, first compound 0.000949 µM", "value": 119, "unit": "%"}, {"measurement": "viability, T/C", "setting": "second compound 0.316 µM, first compound 0.003 µM", "value": 89.5, "unit": "%"}, {"measurement": "viability, T/C", "setting": "second compound 0.316 µM, first compound 0.00949 µM", "value": 77.9, "unit": "%"}, {"measurement": "viability, T/C", "setting": "second compound 0.316 µM, first compound 0.03 µM", "value": 51.3, "unit": "%"}, {"measurement": "viability, T/C", "setting": "second compound 0.316 µM, first compound 0.0949 µM", "value": 38.1, "unit": "%"}, {"measurement": "viability, T/C", "setting": "second compound 0.316 µM, first compound 0.3 µM", "value": 30.5, "unit": "%"}, {"measurement": "viability, T/C", "setting": "second compound 1 µM, first compound 0.000949 µM", "value": 106, "unit": "%"}, {"measurement": "viability, T/C", "setting": "second compound 1 µM, first compound 0.003 µM", "value": 101, "unit": "%"}, {"measurement": "viability, T/C", "setting": "second compound 1 µM, first compound 0.00949 µM", "value": 64, "unit": "%"}, {"measurement": "viability, T/C", "setting": "second compound 1 µM, first compound 0.03 µM", "value": 57.5, "unit": "%"}, {"measurement": "viability, T/C", "setting": "second compound 1 µM, first compound 0.0949 µM", "value": 36, "unit": "%"}, {"measurement": "viability, T/C", "setting": "second compound 1 µM, first compound 0.3 µM", "value": 29.4, "unit": "%"}, {"measurement": "viability, T/C", "setting": "second compound 3.16 µM, first compound 0.000949 µM", "value": 92.8, "unit": "%"}, {"measurement": "viability, T/C", "setting": "second compound 3.16 µM, first compound 0.003 µM", "value": 95.8, "unit": "%"}, {"measurement": "viability, T/C", "setting": "second compound 3.16 µM, first compound 0.00949 µM", "value": 64.2, "unit": "%"}, {"measurement": "viability, T/C", "setting": "second compound 3.16 µM, first compound 0.03 µM", "value": 47.1, "unit": "%"}, {"measurement": "viability, T/C", "setting": "second compound 3.16 µM, first compound 0.0949 µM", "value": 38.7, "unit": "%"}, {"measurement": "viability, T/C", "setting": "second compound 3.16 µM, first compound 0.3 µM", "value": 26.3, "unit": "%"}, {"measurement": "viability, T/C", "setting": "second compound 10 µM, first compound 0.000949 µM", "value": 78.4, "unit": "%"}, {"measurement": "viability, T/C", "setting": "second compound 10 µM, first compound 0.003 µM", "value": 76.7, "unit": "%"}, {"measurement": "viability, T/C", "setting": "second compound 10 µM, first compound 0.00949 µM", "value": 56.7, "unit": "%"}, {"measurement": "viability, T/C", "setting": "second compound 10 µM, first compound 0.03 µM", "value": 45, "unit": "%"}, {"measurement": "viability, T/C", "setting": "second compound 10 µM, first compound 0.0949 µM", "value": 36.6, "unit": "%"}, {"measurement": "viability, T/C", "setting": "second compound 10 µM, first compound 0.3 µM", "value": 33.1, "unit": "%"}]}]}
